13 compounds from ChEMBL document CHEMBL1201862, “PubChem BioAssay data set” (2004) can be followed below.

Calls of active or inactive are those of the source.

The nature of assay [1]: A cytotoxicity screen of small molecule inhibitors of the PhoP region in Salmonella typhi identified in the primary screen. [Related pubchem assays: 1850, 1864, 1985 ]. In kind it is functional.
The next assay deals with T1, Caspase-6 (Homo sapiens, UniProt P55212).
T1 sequence (P55212 whole entry): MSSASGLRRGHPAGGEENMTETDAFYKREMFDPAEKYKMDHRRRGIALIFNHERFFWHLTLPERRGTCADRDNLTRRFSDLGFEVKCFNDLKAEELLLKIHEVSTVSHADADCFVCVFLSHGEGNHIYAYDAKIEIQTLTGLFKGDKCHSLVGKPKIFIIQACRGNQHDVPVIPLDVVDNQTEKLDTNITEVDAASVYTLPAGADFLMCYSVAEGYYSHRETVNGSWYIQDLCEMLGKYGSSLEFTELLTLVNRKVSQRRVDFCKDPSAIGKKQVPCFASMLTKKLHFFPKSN
Put plainly: human caspase-6 inhibitors, dose response, biochemical, VEID-R110 fluorescence, cherry-pick (AID 720632).

The test system of the next assay is H9c2. Briefly: cells. In kind it is functional, cell-based. The note with it: Rattus norvegicus, H9c2, Myocardium.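 Also: confirmatory concentration-response retest of ultra-high-throughput screening hits for modulation of myocardial damage; cell death induced by hydrogen peroxide oxidative stress; compound pretreatment for 60 min then peroxide exposure for 2 h; potency is for protecting the cells against peroxide damage rather than for killing them.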
The target in a further assay is Large T antigen (Simian virus 40, UniProt P03070). In kind it is functional, Betapolyomavirus macacae.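 Also: Confirmatory-stage PubChem screen for compounds that inhibit SV40 T antigen.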
Assay [2] in a line: LGR2 antagonists, dose response, cell-based, HEK293, CRE-luciferase reporter, cherry pick, set 2 (AID 743343).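 Also: transfected cells were stimulated with diluted bursicon conditioned medium after compound addition.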 Format: functional. (A reporter such as luciferase makes a cellular process visible.)
Assay [3] can be described thus: MC4R antagonists, dose response, counter-screen for LGR2 antagonist project, cell-based, plate reader, cherry pick (AID 743444).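 Also: transfected HEK 293 cells stimulated with alpha-MSH peptide; potency of inhibitors of the alpha-MSH evoked signal.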 Format: functional. (In general: A counterscreen serves to expose hits that act by an unwanted route or on another target.)
Assay [4] is described as follows: inhibitors of firefly luciferase expression or activity, dose response, H4 neuroglioma cells, luminescence (AID 1990). In kind it is functional, cell-based.
Assay [5] in a line: Luminescence Cell-Based Dose Response HTS to Identify Inhibitors of 5'UTR Stem-Loop Driven Prion Protein mRNA Translation in H4 Neuroglioblastoma Cells. [Related pubchem assays: 1827 (Project Summary), 1813 (Primary HTS)]. In kind it is functional.
Assay [6] in a line: inhibitors of SNCA 5'UTR-driven reporter translation, confirmation, H4 neuroglioma cells, luminescence (AID 1988). In kind it is functional, cell-based.
Assay [7] in a line: inhibitors of intracellular T. cruzi replication, confirmation, NIH3T3 host cells, beta-gal luminescence (AID 2044).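 Also: intracellular parasites grown in NIH/3T3 mouse fibroblasts as host cells; luminescent beta-galactosidase reporter signal from transgenic T. cruzi replicating inside host cells; inhibitors lower the luminescence signal.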 Format: functional, cell-based.
Assay [8] is described as follows: cytotoxicity toward NIH3T3 fibroblasts, dose response, counter-screen, cell-based, ATP luminescence, mouse fibroblasts (AID 2010).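 Also: cells exposed to compound for about 90 hours before reading.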 Format: functional.
The target of assay [9] is T2, Short transient receptor potential channel 4 (Mus musculus, UniProt Q9QUQ5).
T2 sequence (Q9QUQ5 whole entry): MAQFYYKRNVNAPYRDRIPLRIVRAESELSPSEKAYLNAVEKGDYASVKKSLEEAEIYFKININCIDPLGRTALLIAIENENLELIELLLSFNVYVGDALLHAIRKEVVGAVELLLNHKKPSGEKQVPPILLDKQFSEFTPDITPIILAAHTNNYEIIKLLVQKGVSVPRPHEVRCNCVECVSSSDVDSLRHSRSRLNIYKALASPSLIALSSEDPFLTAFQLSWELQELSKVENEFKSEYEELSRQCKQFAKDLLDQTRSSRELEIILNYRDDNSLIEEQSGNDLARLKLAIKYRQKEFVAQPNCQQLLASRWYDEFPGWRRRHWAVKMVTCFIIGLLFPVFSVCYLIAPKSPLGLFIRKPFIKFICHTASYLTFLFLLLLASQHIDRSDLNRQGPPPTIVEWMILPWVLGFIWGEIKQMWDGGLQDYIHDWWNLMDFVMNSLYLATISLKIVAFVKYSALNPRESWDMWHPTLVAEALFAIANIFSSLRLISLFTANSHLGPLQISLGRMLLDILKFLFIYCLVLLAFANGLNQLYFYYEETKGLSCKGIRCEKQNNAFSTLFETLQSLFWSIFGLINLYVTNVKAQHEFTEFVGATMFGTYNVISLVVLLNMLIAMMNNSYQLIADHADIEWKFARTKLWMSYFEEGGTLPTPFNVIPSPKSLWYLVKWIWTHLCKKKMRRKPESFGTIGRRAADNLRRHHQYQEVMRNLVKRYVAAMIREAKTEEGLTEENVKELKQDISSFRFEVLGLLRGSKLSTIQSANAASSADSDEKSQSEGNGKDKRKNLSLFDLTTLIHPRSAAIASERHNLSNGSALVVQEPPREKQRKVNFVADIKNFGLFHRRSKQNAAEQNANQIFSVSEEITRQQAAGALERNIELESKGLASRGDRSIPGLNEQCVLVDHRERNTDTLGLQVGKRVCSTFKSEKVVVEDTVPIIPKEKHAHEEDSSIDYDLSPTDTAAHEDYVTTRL
Briefly: mouse TRPC4 channel inhibitors, dose response, cell-based, HEK293 TRPC4/mu-opioid, Fluo-4 calcium (AID 434942).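 Also: potency of inhibitors blocking the TRPC4 calcium response.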 In kind it is functional.

Assay [10] in a line: Shn3 3'UTR reporter inhibitors, dose response, cell-based, Clone20 osteoblasts, firefly luciferase, cherry-picked (AID 624132).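 Also: firefly luciferase luminescence from reporter carrying the Shn3 3'UTR in osteoblasts.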 In kind it is functional.
Assay [11] in a line: HepG2 cell cytotoxicity, dose response, cytotoxicity control for Shn3 inhibitor project, CellTiter-Glo, cherry-picked (AID 624134). Format: functional, cell-based. For orientation: In ATP-based viability assays light output follows the ATP content of the culture.
Assay [12] is described as follows: control 3'UTR Renilla luciferase suppression, dose response, counter-screen for Shn3 inhibitor project, cell-based, Clone20-Shn3RL, cherry-picked (AID 624133). Format: functional.
Assay [13] has as its target FAD-linked sulfhydryl oxidase ALR (Homo sapiens, UniProt P55789). Briefly: inhibitors of human ALR sulfhydryl oxidase, dose response, biochemical, H2O2 detection, luminescence, cherry-pick (AID 493248).

Chain of Large T antigen (P03070 whole entry): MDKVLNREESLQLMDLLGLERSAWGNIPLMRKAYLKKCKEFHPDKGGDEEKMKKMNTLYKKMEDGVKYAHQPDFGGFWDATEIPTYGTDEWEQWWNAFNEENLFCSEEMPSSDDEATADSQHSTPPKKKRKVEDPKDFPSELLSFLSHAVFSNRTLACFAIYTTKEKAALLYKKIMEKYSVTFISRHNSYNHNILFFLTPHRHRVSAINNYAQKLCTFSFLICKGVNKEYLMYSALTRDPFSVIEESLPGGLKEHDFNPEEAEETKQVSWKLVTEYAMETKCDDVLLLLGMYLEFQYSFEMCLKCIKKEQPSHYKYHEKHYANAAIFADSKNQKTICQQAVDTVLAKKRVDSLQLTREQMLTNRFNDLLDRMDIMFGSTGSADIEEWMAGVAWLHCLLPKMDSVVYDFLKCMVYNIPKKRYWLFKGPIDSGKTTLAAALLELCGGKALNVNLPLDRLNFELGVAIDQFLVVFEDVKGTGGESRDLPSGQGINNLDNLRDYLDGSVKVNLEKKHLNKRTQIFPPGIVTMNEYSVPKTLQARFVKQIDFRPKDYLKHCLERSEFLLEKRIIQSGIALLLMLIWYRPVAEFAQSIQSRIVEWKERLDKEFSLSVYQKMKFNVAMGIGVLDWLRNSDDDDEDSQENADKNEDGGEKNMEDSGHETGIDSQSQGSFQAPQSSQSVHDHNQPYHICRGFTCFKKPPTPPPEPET
Chain of FAD-linked sulfhydryl oxidase ALR (P55789 whole entry): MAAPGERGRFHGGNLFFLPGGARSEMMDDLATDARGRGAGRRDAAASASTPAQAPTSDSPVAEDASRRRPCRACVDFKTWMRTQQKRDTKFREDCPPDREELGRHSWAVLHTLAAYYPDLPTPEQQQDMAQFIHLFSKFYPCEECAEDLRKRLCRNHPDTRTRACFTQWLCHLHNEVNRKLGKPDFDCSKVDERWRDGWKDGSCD

With `CCOC(=O)c1nc2cc3n(c(CC(C)C)c-2c1C)CC(C)=C3C`, in assay [1], the EC50 is > 50 µM (active).
Take `CC(Oc1ccc(F)cc1)C(=O)Nc1cccc(-c2nn[nH]n2)c1` (centres undefined): the AC50 at Caspase-6 was 32.6 µM (active).
For the compound `COc1cc(C(=O)N/N=C/c2ccc(OC(=O)c3cccc(C)c3)c(OC)c2)ccc1O`, the concentration giving a half-maximal response (EC50) in [1] was > 50 µM (active). Moreover, in the assay with H9c2, the IC50 is > 79 µM (inactive).
Turning to `Nc1[nH]cnc2nc(SCC(=O)Nc3cccc(C(F)(F)F)c3)nc1-2`, in assay [1], the EC50 was > 50 µM (active).
On to `CCN(CC)c1ccc(NC(=O)COC(=O)COc2ccccc2[N+](=O)[O-])cc1`, for which the half-maximal inhibitory concentration (IC50) at Large T antigen was 10.4 µM (active).
Regarding `C/C(=N\NC(=O)c1cc(O)ccc1O)c1cccc(NC(=O)c2cccc(Cl)c2)c1`, the AC50 on Caspase-6 is 1.18 µM (active).
On to `Clc1ccc(CN2CCN(/N=C/c3ccco3)CC2)cc1`, for which the EC50 in assay [1] is > 50 µM (active).
On the same count and under the same terms, under `O=Cc1ccc(N2CCCCCC2)cc1` stands > 50 µM (active).
For `c1nc(CCO[C@H]2CCCCO2)cc2cc3c(cc12)OCO3`, the AC50 is 2.56 µM (active) in assay [2] and 3.45 µM (active) in assay [3].
Regarding `NC(=O)CN1N=C(c2cc(Cl)sc2Cl)CSC1=O`, in assay [1], the concentration for a half-maximal effect (EC50) was > 50 µM (active).
`COc1ccc2c(C(=O)CN(C)C3CCCCC3)c[nH]c2c1`: the EC50 in assay [1] is > 50 µM (active).
For the compound `CCOc1cc(CNCCCN2CCOCC2)cc(Br)c1OCc1ccccc1Cl`, the concentration giving a half-maximal response (EC50) in [4] is > 120 µM (not active); in [5], > 120 µM (not active); in assay [6] it was > 120 µM (not active); in assay [7], 0.539 µM (active); in [8] it was 12 µM (active); in assay [9], 4.22 µM (active). The AC50 in [10] is 9.31 µM (active); in assay [11] it was 11 µM (active); in assay [12], 19.3 µM (active).
`CC1CC(C)CN(S(=O)(=O)c2cccc3cccnc23)C1` (centres undefined): the EC50 in [1] was > 50 µM (active). In assay [13], the concentration at half-maximal activity (AC50) was 17.4 µM (active).

One may read the EC50 as the midpoint of the concentration-response curve. The AC50 is the midpoint of the concentration-response curve, whichever way the signal moves. As usually defined, the IC50 is the midpoint of a concentration-inhibition curve.
